# ChEMBL document CHEMBL2390902, “Discovery of 1-(1,3,5-triazin-2-yl)piperidine-4-carboxamides as inhibitors of soluble epoxide hydrolase” (Bioorg Med Chem Lett, 2013)
# Columns and labels:
# Homo sapiens [1] = organism: Homo sapiens; experiment: Inhibition of human GABA receptor at 1 uM relative to control
# [2] = biological target: Beta-1 adrenergic receptor (Homo sapiens) (UniProt P08588); experiment: Inhibition of human beta1 receptor at 1 uM relative to control
# [3] = Volume of distribution at steady state in rat at 2 mg/kg, iv; type: ADME, organism-based; design: dose 2 mg/kg, route intravenous; settings: in vivo, read-out: Vdss
# [4] = biological target: 5-hydroxytryptamine receptor 5A (Homo sapiens) (UniProt P47898); experiment: Inhibition of human 5-HT5A receptor at 1 uM relative to control
# [5] = biological target: Vasoactive intestinal polypeptide receptor 1 (Homo sapiens) (UniProt P32241); experiment: Inhibition of human VPAC1 receptor at 1 uM relative to control
# Vasoactive intestinal polypeptide receptor 1 (Homo sapiens), sequence (P32241 whole entry): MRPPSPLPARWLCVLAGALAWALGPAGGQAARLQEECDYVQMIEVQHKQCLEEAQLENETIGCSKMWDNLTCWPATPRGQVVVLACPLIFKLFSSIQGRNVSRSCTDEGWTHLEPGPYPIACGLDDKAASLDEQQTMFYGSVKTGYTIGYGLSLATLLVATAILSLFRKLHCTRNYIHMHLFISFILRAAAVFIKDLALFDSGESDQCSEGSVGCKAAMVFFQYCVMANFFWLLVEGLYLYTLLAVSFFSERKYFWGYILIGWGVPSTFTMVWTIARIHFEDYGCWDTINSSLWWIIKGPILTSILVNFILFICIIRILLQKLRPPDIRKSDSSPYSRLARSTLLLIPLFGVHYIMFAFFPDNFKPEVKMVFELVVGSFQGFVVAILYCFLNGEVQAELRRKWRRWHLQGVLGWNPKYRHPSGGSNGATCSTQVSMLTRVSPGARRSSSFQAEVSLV
# Homo sapiens [6] = organism: Homo sapiens; experiment: Inhibition of human chloride channel at 1 uM relative to control
# [7] = biological target: Substance-K receptor (Homo sapiens) (UniProt P21452); experiment: Inhibition of human NK2 receptor at 1 uM relative to control
# Substance-K receptor (Homo sapiens), sequence (P21452 whole entry): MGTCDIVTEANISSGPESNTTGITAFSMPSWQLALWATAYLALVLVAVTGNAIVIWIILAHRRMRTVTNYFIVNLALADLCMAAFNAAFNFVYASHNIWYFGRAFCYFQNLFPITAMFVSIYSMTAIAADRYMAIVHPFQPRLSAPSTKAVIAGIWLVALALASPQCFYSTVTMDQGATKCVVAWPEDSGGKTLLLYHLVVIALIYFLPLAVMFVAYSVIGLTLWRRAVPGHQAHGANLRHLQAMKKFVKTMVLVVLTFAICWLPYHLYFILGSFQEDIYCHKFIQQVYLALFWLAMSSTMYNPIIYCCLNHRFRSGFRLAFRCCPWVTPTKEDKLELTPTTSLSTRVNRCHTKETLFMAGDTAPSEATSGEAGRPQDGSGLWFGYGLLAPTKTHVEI
# [8] = biological target: Histamine H1 receptor (Homo sapiens) (UniProt P35367); experiment: Inhibition of human histamine H1 receptor at 1 uM relative to control
# Homo sapiens [9] = organism: Homo sapiens; experiment: Inhibition of human sigma receptor at 1 uM relative to control
# Homo sapiens [10] = organism: Homo sapiens; experiment: Inhibition of human SKCa channel at 1 uM relative to control
# [11] = biological target: Endothelin-1 receptor (Homo sapiens) (UniProt P25101); experiment: Inhibition of human ETA receptor at 1 uM relative to control
# Endothelin-1 receptor (Homo sapiens), sequence (P25101 whole entry): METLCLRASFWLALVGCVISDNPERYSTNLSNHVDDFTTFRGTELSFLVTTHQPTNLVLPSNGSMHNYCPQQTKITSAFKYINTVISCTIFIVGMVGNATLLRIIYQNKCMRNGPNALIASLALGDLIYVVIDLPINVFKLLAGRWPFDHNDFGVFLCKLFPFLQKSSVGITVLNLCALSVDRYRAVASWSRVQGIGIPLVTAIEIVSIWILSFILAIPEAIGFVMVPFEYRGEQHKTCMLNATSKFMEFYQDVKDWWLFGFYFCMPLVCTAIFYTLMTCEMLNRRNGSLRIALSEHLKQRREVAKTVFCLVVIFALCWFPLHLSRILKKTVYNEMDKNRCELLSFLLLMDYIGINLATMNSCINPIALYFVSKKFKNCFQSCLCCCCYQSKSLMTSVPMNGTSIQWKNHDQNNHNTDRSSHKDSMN
# [12] = biological target: Muscarinic acetylcholine receptor M3 (Homo sapiens) (UniProt P20309); experiment: Inhibition of human M3 receptor at 1 uM relative to control
# Muscarinic acetylcholine receptor M3 (Homo sapiens), sequence (P20309 whole entry, looked up): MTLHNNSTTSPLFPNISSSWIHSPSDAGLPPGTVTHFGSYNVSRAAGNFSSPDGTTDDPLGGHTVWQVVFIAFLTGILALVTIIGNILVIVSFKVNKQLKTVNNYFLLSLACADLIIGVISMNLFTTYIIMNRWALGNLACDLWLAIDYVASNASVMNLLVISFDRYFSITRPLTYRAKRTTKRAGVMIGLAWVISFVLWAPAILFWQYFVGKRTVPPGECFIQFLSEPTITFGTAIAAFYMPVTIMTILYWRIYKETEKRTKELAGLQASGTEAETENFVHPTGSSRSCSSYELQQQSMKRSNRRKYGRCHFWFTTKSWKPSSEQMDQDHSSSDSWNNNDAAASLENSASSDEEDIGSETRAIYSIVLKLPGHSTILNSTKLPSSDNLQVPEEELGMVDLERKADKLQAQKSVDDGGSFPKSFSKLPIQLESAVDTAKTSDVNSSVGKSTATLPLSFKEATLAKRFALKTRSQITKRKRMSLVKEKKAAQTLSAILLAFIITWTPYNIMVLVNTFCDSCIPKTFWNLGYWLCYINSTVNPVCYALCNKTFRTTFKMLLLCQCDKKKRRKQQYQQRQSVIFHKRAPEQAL
# Homo sapiens [13] = organism: Homo sapiens; experiment: Inhibition of human delta2 opioid receptor at 1 uM relative to control
# [14] = Fraction unbound in rat plasma; type: ADME, cell-free
# [15] = biological target: Adenosine receptor A1 (Homo sapiens) (UniProt P30542); experiment: Inhibition of human adenosine A1 receptor at 1 uM relative to control
# Adenosine receptor A1 (Homo sapiens), sequence (P30542 whole entry): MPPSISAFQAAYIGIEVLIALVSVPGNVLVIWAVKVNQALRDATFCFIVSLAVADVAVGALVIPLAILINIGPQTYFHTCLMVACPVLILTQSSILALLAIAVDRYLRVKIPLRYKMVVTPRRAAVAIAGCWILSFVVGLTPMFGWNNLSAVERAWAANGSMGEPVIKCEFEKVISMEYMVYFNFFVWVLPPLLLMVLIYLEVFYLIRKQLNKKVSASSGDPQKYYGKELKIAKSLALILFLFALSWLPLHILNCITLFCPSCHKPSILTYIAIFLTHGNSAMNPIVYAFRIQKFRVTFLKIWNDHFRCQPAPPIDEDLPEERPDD
# [16] = biological target: Muscarinic acetylcholine receptor M1 (Homo sapiens) (UniProt P11229); experiment: Inhibition of human M1 receptor at 1 uM relative to control
# [17] = biological target: Type-1 angiotensin II receptor (Homo sapiens) (UniProt P30556); experiment: Inhibition of human AT1 receptor at 1 uM relative to control
# Type-1 angiotensin II receptor (Homo sapiens), sequence (P30556 whole entry): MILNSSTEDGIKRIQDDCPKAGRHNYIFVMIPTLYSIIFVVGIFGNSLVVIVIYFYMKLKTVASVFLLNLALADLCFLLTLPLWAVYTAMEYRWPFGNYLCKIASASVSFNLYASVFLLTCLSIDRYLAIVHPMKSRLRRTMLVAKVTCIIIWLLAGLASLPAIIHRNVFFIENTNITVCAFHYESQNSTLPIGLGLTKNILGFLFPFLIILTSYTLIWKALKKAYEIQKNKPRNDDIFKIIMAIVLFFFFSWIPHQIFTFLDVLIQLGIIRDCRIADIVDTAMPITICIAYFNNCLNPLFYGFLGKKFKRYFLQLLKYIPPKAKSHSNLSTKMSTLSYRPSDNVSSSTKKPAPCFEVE
# [18] = biological target: Mu-type opioid receptor (Homo sapiens) (UniProt P35372); experiment: Inhibition of human mu opioid receptor at 1 uM relative to control
# Mu-type opioid receptor (Homo sapiens), sequence (P35372 whole entry): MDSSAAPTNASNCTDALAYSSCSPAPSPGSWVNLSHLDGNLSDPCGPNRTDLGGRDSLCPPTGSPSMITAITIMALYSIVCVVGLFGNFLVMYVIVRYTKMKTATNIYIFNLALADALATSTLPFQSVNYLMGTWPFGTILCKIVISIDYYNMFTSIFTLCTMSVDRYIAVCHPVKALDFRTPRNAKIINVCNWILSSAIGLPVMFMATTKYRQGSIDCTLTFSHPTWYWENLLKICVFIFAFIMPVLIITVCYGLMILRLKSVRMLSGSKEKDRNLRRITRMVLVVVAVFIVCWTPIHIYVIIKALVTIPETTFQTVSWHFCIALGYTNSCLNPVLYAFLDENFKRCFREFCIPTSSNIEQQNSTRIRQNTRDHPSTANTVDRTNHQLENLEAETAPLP
# [19] = biological target: Adrenergic receptor alpha-1 (Homo sapiens) (UniProt P35348+P25100+P35368); experiment: Inhibition of human alpha1 receptor at 1 uM relative to control
# [20] = biological target: Neuropeptide Y receptor type 2 (Homo sapiens) (UniProt P49146); experiment: Inhibition of human Y2 receptor at 1 uM relative to control
# Neuropeptide Y receptor type 2 (Homo sapiens), sequence (P49146 whole entry): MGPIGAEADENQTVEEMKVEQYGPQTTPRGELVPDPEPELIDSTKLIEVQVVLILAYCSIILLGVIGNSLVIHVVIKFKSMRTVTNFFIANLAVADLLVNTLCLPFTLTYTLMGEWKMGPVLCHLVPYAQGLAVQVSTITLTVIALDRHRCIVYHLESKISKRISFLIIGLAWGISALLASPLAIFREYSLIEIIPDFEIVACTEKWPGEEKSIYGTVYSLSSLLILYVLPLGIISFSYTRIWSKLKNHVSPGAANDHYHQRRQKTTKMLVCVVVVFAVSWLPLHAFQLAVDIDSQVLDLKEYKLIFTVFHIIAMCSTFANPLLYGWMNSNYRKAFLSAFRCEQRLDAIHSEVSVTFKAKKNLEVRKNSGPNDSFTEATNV
# [21] = biological target: Neurotensin receptor type 1 (Homo sapiens) (UniProt P30989); experiment: Inhibition of human NTS1 receptor at 1 uM relative to control
# Neurotensin receptor type 1 (Homo sapiens), sequence (P30989 whole entry): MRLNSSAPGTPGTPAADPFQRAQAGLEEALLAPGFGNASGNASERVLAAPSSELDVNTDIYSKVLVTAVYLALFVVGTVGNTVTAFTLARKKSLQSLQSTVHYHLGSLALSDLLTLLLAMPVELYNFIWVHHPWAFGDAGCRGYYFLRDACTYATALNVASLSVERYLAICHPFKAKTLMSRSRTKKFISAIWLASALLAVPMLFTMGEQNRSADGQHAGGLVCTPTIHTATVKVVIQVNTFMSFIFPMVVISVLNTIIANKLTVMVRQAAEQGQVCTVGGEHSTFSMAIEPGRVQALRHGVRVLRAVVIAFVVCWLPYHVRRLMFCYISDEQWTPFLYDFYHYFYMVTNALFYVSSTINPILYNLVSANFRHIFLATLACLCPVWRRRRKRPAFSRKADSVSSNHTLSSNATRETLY
# [22] = biological target: Neuromedin-K receptor (Homo sapiens) (UniProt P29371); experiment: Inhibition of human NK3 receptor at 1 uM relative to control
# [23] = biological target: Adenosine receptor A3 (Homo sapiens) (UniProt P0DMS8); experiment: Inhibition of human adenosine A3 receptor at 1 uM relative to control
# Adenosine receptor A3 (Homo sapiens), sequence (P0DMS8 whole entry): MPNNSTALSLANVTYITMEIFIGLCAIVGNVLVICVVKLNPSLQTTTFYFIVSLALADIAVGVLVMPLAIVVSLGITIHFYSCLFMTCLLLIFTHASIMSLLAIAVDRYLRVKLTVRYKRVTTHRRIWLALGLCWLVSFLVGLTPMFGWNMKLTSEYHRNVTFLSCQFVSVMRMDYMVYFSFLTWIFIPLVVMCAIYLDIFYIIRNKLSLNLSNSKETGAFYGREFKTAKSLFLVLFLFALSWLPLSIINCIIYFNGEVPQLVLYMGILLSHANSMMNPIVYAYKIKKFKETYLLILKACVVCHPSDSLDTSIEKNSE
# Cytochrome P450 2C8 = Cytochrome P450 2C8 (Homo sapiens, UniProt P10632); experiment: Inhibition of CYP2C8 (unknown origin); type: ADME
# Cytochrome P450 2C8, sequence (P10632 whole entry): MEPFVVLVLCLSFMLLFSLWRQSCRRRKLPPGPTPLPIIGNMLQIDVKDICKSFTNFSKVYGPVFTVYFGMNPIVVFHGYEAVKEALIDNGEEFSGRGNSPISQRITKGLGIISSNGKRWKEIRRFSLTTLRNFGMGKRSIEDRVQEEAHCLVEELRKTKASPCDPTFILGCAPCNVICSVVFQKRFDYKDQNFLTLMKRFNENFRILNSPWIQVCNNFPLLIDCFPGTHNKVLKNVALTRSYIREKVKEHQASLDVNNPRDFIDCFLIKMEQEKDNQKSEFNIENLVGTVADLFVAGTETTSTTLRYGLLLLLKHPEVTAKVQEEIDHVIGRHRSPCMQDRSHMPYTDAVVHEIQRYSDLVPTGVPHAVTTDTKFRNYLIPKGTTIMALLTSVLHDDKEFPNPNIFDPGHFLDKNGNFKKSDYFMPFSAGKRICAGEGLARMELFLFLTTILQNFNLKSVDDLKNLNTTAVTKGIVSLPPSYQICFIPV
# [24] = biological target: C-X-C chemokine receptor type 2 (Homo sapiens) (UniProt P25025); experiment: Inhibition of human CXCR2 receptor at 1 uM relative to control
# C-X-C chemokine receptor type 2 (Homo sapiens), sequence (P25025 whole entry): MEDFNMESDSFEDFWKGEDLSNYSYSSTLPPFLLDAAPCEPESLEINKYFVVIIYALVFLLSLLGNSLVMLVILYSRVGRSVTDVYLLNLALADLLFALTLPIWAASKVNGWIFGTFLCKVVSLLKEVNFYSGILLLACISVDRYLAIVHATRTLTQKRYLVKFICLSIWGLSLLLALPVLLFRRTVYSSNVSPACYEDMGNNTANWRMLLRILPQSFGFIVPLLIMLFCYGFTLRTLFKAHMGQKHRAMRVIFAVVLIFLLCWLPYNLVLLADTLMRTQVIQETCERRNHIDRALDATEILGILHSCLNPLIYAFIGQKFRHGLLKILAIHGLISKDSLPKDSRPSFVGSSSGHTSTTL
compound,measurement,setting,value
CNc1nc(C)nc(N2CCC(C(=O)NCc3ccc(Br)cc3OC(F)(F)F)CC2)n1,inhibition,Homo sapiens [1],< 50%
same,inhibition,[2],< 50%
same,Vd,[3],2.1 L/kg
same,inhibition,[4],< 50%
same,inhibition,[5],< 50%
same,inhibition,Homo sapiens [6],< 50%
same,inhibition,[7],< 50%
same,inhibition,[8],< 50%
same,inhibition,Homo sapiens [9],< 50%
same,inhibition,Homo sapiens [10],< 50%
same,inhibition,[11],< 50%
same,inhibition,[12],< 50%
same,inhibition,Homo sapiens [13],< 50%
same,fraction unbound,[14],0.015
same,inhibition,[15],< 50%
same,inhibition,[16],< 50%
same,inhibition,[17],< 50%
same,inhibition,[18],< 50%
same,inhibition,[19],< 50%
same,inhibition,[20],< 50%
same,inhibition,[21],< 50%
same,inhibition,[22],< 50%
same,inhibition,[23],< 50%
same,IC50,Cytochrome P450 2C8,> 30 µM
same,inhibition,[24],< 50%
